Source: patent US20260265249A1, “PHARMACEUTICALLY ACCEPTABLE SALT AND CRYSTAL FORM OF 1,4-DIHYDRO-1,6-NAPHTHYRIDINE AMIDE COMPOUND AND PREPARATION METHOD THEREFOR” (JIANGSU HENGRUI PHARMACEUTICALS CO., LTD., priority 2023, published 2026)

Columns and labels:
Type in all cases: physicochemical
[1] = Influencing factor stability study (open containers; light, high temperature, high humidity; 30 days)
[2] = DVS (dynamic vapor sorption) hygroscopicity test
From the text: According to the description of hygroscopicity characteristics and the definitions of hygroscopic weight gains in “General Rule 9103, Guidelines for Hygroscopicity” in the Chinese Pharmacopoeia, Volume IV, 2015 Edition, • deliquescent: sufficient water is absorbed to form a liquid; • extremely hygroscopic: the hygroscopic weight gain is not less than 15%; • hygroscopic: the hygroscopic weight gain is less than 15% but not less than 2%; • slightly hygroscopic: the hygroscopic weight gain is less than 2% but not less than 0.2%; • nonhygroscopic or practically nonhygroscopic: the hygroscopic weight gain is less than 0.2%.
TGA refers to thermogravimetric analysis: The analysis was performed using a METTLER TOLEDO TGA 2 thermogravimetric analyzer, with a temperature ramp rate of 10° C./min, specific temperature ranges shown in corresponding patterns (mostly 30-350° C.), and a nitrogen purge speed of 50 mL/min. DVS refers to dynamic vapor sorption: The analysis was performed using SMS DVS Advantage; at 25° C., the humidity was changed as follows: 50%-95%-0%-95%-50%, in steps of 10% (5% for the last step) (specific humidity ranges are shown in corresponding patterns, and those listed here were used in most cases); the criterion was dm/dt being not greater than 0.002%.

[3] = Long-term/accelerated stability study (sealed in aluminum foil bags, 25° C./60% RH and 40° C./75% RH)
[4] = open container, 40° C., 1 month
[5] = open container, 40° C., 14 days
[6] = open container, 60° C., 1 month
[7] = open container, 60° C., 14 days
[8] = open container, 75% RH, 1 month
[9] = open container, 75% RH, 14 days
[10] = open container, 92.5% RH, 1 month
[11] = open container, 92.5% RH, 7 days
[12] = open container, 92.5% RH, 14 days
[13] = open container, light exposure (4500 Lux), 1 month
[14] = open container, light exposure (4500 Lux), 7 days
[15] = open container, light exposure (4500 Lux), 14 days
[16] = 25° C.-60% RH, sealed aluminum foil bag, 1 month
[17] = 25° C.-60% RH, sealed aluminum foil bag, 2 months
[18] = 25° C.-60% RH, sealed aluminum foil bag, 3 months
[19] = 25° C.-60% RH, sealed aluminum foil bag, 6 months
[20] = 40° C.-75% RH, sealed aluminum foil bag, 1 month
[21] = 40° C.-75% RH, sealed aluminum foil bag, 2 months
[22] = 40° C.-75% RH, sealed aluminum foil bag, 3 months
[23] = 40° C.-75% RH, sealed aluminum foil bag, 6 months

O=S(=O)(O)O.[2H]C([2H])([2H])Oc1cc(C#N)ccc1[C@@H]1C(C(N)=O)=C(C)Nc2c(C)cnc(OCC)c21 [crystal form a of sulfate]
Crystal form ([1]; 0 days): Crystal form a of sulfate
Purity ([1]; 0 days): 99.7%
Crystal form [1, 4]: No change
Purity [1, 4]: 98.5%
Crystal form ([1]; open container, 40° C., 7 days): No change
Purity ([1]; open container, 40° C., 7 days): 99.4%
Crystal form [1, 5]: No change
Purity [1, 5]: 98.8%
Crystal form [1, 6]: No change
Purity [1, 6]: 97.9%
Crystal form ([1]; open container, 60° C., 7 days): No change
Purity ([1]; open container, 60° C., 7 days): 99.2%
Crystal form [1, 7]: No change
Purity [1, 7]: 98.7%
Crystal form [1, 8]: No change
Purity [1, 8]: 99.7%
Crystal form ([1]; open container, 75% RH, 7 days): No change
Purity ([1]; open container, 75% RH, 7 days): 99.7%
Crystal form [1, 9]: No change
Purity [1, 9]: 99.6%
Crystal form [1, 10]: No change
Purity [1, 10]: 99.7%
Crystal form [1, 11]: No change
Purity [1, 11]: 99.6%
Crystal form [1, 12]: No change
Purity [1, 12]: 99.7%
Crystal form [1, 13]: No change
Purity [1, 13]: 98.1%
Crystal form [1, 14]: No change
Purity [1, 14]: 99.2%
Crystal form [1, 15]: No change
Purity [1, 15]: 98.9%
hygroscopic weight gain ([2]; accelerated experimental conditions, 70% RH): about 1.9%
crystal form re-identified after the DVS test ([2]; after DVS test): did not change
hygroscopic weight gain ([2]; extreme conditions, 90% RH): about 3.1%
hygroscopic weight gain ([2]; normal storage conditions, 25° C. and 60% RH): about 1.6%
Purity (%) ([3]; 0 days (initial)): 99.7%
Crystal form [3, 16]: No change
Purity (%) [3, 16]: 99.7%
Crystal form [3, 17]: No change
Purity (%) [3, 17]: 99.7%
Crystal form [3, 18]: No change
Purity (%) [3, 18]: 99.8%
Crystal form [3, 19]: No change
Purity (%) [3, 19]: 99.7%
Crystal form [3, 20]: No change
Purity (%) [3, 20]: 99.6%
Crystal form [3, 21]: No change
Purity (%) [3, 21]: 99.7%
Crystal form [3, 22]: No change
Purity (%) [3, 22]: 99.6%
Crystal form [3, 23]: No change
Purity (%) [3, 23]: 99.6%
long-term/accelerated stability (conclusion) ([3]; storage under long-term accelerated conditions for 6 months): good physical and chemical stability
